Data on eight molecules can be found in patent US20260201008A1, “SECRETIN-DERIVED GLP1R SELECTIVE AGONISTS” (GUBRA A/S, priority 2023, published 2026).

Square brackets hold non-standard residues; d marks the D form. Peptide text beside a SMILES is read from it. Aib = CC(C)(N)C(=O)O

The nature of series [1]: Fibril formation of crude library peptides (Thioflavin T). The format is physicochemical. On the set-up: key: average ThT fluorescence emission at 480 nm (ex 450 nm), raw units. The note with it: Physical stability of peptides. Put shortly: (§1)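 Values reflect mean ThT emission (ex 450, em 480 nm) over 72 h at 40° C, read every 10 min after 5 min shaking at 700 rpm, plus a single initial absorbance at 600 nm for turbidity. Peptides were at 267 μM, pH 4.0 acetate or pH 7.0 phosphate (50 mM), with 4 μM ThT.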

In the next series the target is SCTR (Homo sapiens, UniProt P47872). Put plainly: hSCTR potency, cAMP accumulation in CHO-K1 cells stably overexpressing hSCTR. The note with it: cAMP accumulation, CHO-K1 cells overexpressing hSCTR; read-out: hSCTR pEC50 (converted). It counts as cell-based. On the set-up: alternatively Euroscreen ES-712-AF; FAST-0161L; host or cells: CHO-K1. Put shortly: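 Division-arrested CHO-K1 cells stably expressing hSCTR were plated in DPBS with 0.05% casein and 0.5 mM IBMX, then stimulated with test peptide for 30 min at room temperature. cAMP was read by HTRF after one hour. EC50 came from variable-slope sigmoidal nonlinear regression.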
SCTR, sequence (P47872 23-440): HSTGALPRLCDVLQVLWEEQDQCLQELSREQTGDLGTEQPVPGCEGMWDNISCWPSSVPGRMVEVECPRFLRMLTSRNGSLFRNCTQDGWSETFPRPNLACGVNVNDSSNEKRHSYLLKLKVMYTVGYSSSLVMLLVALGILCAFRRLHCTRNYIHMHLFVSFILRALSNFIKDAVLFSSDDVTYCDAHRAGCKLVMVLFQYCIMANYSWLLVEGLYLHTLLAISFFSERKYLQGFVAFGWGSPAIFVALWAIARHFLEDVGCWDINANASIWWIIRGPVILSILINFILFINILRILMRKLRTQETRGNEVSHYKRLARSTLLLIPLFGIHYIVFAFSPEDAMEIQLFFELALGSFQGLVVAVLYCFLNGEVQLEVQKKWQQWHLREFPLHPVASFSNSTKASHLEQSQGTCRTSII

Series [2] in a line: Turbidity of crude library peptides (absorbance at 600 nm). The note with it: Physical stability of peptides. The format is physicochemical. A digest of the protocol:
as §1

The target in another series is GLP1R (Homo sapiens, UniProt P43220). Put plainly: hGLP1R potency, cAMP accumulation in CHO-K1 cells stably overexpressing hGLP1R. It counts as cell-based. On the set-up: host or cells: CHO-K1. Particulars: for EC50: cAMP accumulation, CHO-K1 cells overexpressing hGLP1R, read-out: hGLP1R pEC50 (converted); for SCTR EC50/GLP1R EC50 ratio: selectivity for hGLP1R over hSCTR, cAMP accumulation in CHO-K1 cells. Put shortly: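 Cells were plated in DPBS with 0.05% casein and 0.5 mM IBMX, then stimulated for 30 min at room temperature with test compound. cAMP was read by TR-FRET after one hour. EC50 came from variable-slope sigmoid nonlinear regression; purified peptides ran as 11-point 3-fold series, n=2.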
GLP1R, sequence (P43220 24-463): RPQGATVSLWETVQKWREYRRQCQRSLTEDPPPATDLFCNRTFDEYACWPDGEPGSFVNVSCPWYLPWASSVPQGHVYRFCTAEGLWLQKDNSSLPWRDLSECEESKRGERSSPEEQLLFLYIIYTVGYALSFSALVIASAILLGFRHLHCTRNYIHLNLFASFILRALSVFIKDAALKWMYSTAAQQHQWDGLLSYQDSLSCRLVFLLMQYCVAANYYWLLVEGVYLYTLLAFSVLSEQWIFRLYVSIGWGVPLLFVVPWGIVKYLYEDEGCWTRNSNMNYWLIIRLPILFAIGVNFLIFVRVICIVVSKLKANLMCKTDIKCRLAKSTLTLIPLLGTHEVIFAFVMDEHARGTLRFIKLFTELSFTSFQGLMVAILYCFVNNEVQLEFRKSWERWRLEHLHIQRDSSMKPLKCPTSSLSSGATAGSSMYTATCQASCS

As to `CC[C@H](C)[C@H](NC(=O)[C@H](Cc1ccccc1)NC(=O)[C@H](CCCNC(=N)N)NC(=O)[C@H](CCC(N)=O)NC(=O)[C@H](CC(C)C)NC(=O)[C@H](C)NC(=O)[C@H](C)NC(=O)CNC(=O)[C@H](CCC(=O)O)NC(=O)[C@H](CC(C)C)NC(=O)[C@H](CC(C)C)NC(=O)[C@H](Cc1ccc(O)cc1)NC(=O)[C@H](CO)NC(=O)C(C)(C)NC(=O)[C@H](CC(=O)O)NC(=O)[C@H](CO)NC(=O)[C@@H](NC(=O)[C@H](Cc1ccccc1)NC(=O)[C@@H](NC(=O)CNC(=O)[C@H](CCC(=O)O)NC(=O)C(C)(C)NC(=O)[C@@H](N)Cc1c[nH]cn1)[C@@H](C)O)[C@@H](C)O)C(=O)N[C@@H](CCC(N)=O)C(=O)N[C@@H](Cc1c[nH]c2ccccc12)C(=O)N[C@@H](CC(C)C)C(=O)N[C@H](C(N)=O)C(C)C` [compound 106] (H-H[Aib]EGTFTSD[Aib]SYLLEGAALQRFIQWLV-NH2), the Fibril formation in series [1] was 11918. Moreover, the EC50 at SCTR is 1580 nM. Besides, the “Turbidity (pH 7)” value in series [2] came out at 0.74. Also, on GLP1R, the EC50 was 0.0158 nM and the “SCTR EC50/GLP1R EC50 ratio” value is given as 100392.
With `CC[C@H](C)[C@H](NC(=O)[C@H](Cc1ccccc1)NC(=O)[C@H](CCCNC(=N)N)NC(=O)[C@H](CCC(N)=O)NC(=O)[C@H](CC(C)C)NC(=O)[C@H](C)NC(=O)[C@H](C)NC(=O)CNC(=O)[C@H](CCC(=O)O)NC(=O)[C@H](CC(C)C)NC(=O)[C@H](CC(C)C)NC(=O)C(C)(C)NC(=O)[C@H](CO)NC(=O)C(C)(C)NC(=O)[C@H](CC(=O)O)NC(=O)[C@H](CO)NC(=O)[C@@H](NC(=O)[C@H](Cc1ccccc1)NC(=O)[C@@H](NC(=O)CNC(=O)[C@H](CCC(=O)O)NC(=O)C(C)(C)NC(=O)[C@@H](N)Cc1c[nH]cn1)[C@@H](C)O)[C@@H](C)O)C(=O)N[C@@H](CCC(N)=O)C(=O)N[C@@H](Cc1c[nH]c2ccccc12)C(=O)N[C@@H](CC(C)C)C(=O)N[C@H](C(N)=O)C(C)C` [compound 107] (H-H[Aib]EGTFTSD[Aib]S[Aib]LLEGAALQRFIQWLV-NH2), in series [1], the Fibril formation worked out at 3284. Also, the EC50 on SCTR was 1000 nM. For the same molecule, in series [2], the “Turbidity (pH 7)” value is reported as 0.15. Also, at GLP1R, the EC50 was 0.158 nM and the “SCTR EC50/GLP1R EC50 ratio” value is reported as 6863.
For `CC[C@H](C)[C@H](NC(=O)[C@H](Cc1ccccc1)NC(=O)[C@H](CCCNC(=N)N)NC(=O)[C@H](CCC(N)=O)NC(=O)[C@H](CC(C)C)NC(=O)[C@H](C)NC(=O)[C@H](C)NC(=O)CNC(=O)[C@H](CCC(=O)O)NC(=O)[C@H](CC(C)C)NC(=O)[C@H](CC(C)C)NC(=O)[C@H](Cc1c[nH]c2ccccc12)NC(=O)[C@H](CO)NC(=O)C(C)(C)NC(=O)[C@H](CC(=O)O)NC(=O)[C@H](CO)NC(=O)[C@@H](NC(=O)[C@H](Cc1ccccc1)NC(=O)[C@@H](NC(=O)CNC(=O)[C@H](CCC(=O)O)NC(=O)C(C)(C)NC(=O)[C@@H](N)Cc1c[nH]cn1)[C@@H](C)O)[C@@H](C)O)C(=O)N[C@@H](CCC(N)=O)C(=O)N[C@@H](Cc1c[nH]c2ccccc12)C(=O)N[C@@H](CC(C)C)C(=O)N[C@H](C(N)=O)C(C)C` [compound 108] (H-H[Aib]EGTFTSD[Aib]SWLLEGAALQRFIQWLV-NH2), in that order: 20603, 1260 nM, 0.72, 0.0794 nM and 14555.
For `CC[C@H](C)[C@H](NC(=O)[C@H](Cc1ccccc1)NC(=O)[C@H](CCCNC(=N)N)NC(=O)[C@H](CCC(N)=O)NC(=O)[C@H](CC(C)C)NC(=O)[C@H](C)NC(=O)[C@H](C)NC(=O)CNC(=O)[C@H](CCC(=O)O)NC(=O)[C@H](CC(C)C)NC(=O)[C@H](CC(C)C)NC(=O)[C@H](CCC(=O)O)NC(=O)[C@H](CO)NC(=O)C(C)(C)NC(=O)[C@H](CC(=O)O)NC(=O)[C@H](CO)NC(=O)[C@@H](NC(=O)[C@H](Cc1ccccc1)NC(=O)[C@@H](NC(=O)CNC(=O)[C@H](CCC(=O)O)NC(=O)C(C)(C)NC(=O)[C@@H](N)Cc1c[nH]cn1)[C@@H](C)O)[C@@H](C)O)C(=O)N[C@@H](CCC(N)=O)C(=O)N[C@@H](Cc1c[nH]c2ccccc12)C(=O)N[C@@H](CC(C)C)C(=O)N[C@H](C(N)=O)C(C)C` [compound 109] (H-H[Aib]EGTFTSD[Aib]SELLEGAALQRFIQWLV-NH2), in that order: 3301, 3160 nM, 0.08, 0.0794 nM and 39765.
Molecule `CC[C@H](C)[C@H](NC(=O)[C@H](Cc1ccccc1)NC(=O)[C@H](CCCNC(=N)N)NC(=O)[C@H](CCC(N)=O)NC(=O)[C@H](CC(C)C)NC(=O)[C@H](C)NC(=O)[C@H](C)NC(=O)CNC(=O)[C@H](CCC(=O)O)NC(=O)[C@H](CC(C)C)NC(=O)[C@H](CC(C)C)NC(=O)[C@@H](NC(=O)[C@H](CO)NC(=O)C(C)(C)NC(=O)[C@H](CC(=O)O)NC(=O)[C@H](CO)NC(=O)[C@@H](NC(=O)[C@H](Cc1ccccc1)NC(=O)[C@@H](NC(=O)CNC(=O)[C@H](CCC(=O)O)NC(=O)C(C)(C)NC(=O)[C@@H](N)Cc1c[nH]cn1)[C@@H](C)O)[C@@H](C)O)C(C)C)C(=O)N[C@@H](CCC(N)=O)C(=O)N[C@@H](Cc1c[nH]c2ccccc12)C(=O)N[C@@H](CC(C)C)C(=O)N[C@H](C(N)=O)C(C)C` [compound 110] (H-H[Aib]EGTFTSD[Aib]SVLLEGAALQRFIQWLV-NH2) yielded a Fibril formation in series [1] of 3449. Further, the EC50 was 2000 nM at SCTR and 0.2 nM at GLP1R. Also, in series [2], the “Turbidity (pH 7)” value came out at 0.15. For the same molecule, the “SCTR EC50/GLP1R EC50 ratio” value on GLP1R was found to be 10257.
For `CC[C@H](C)[C@H](NC(=O)[C@H](Cc1ccccc1)NC(=O)[C@H](CCCNC(=N)N)NC(=O)[C@H](CCC(N)=O)NC(=O)[C@H](CC(C)C)NC(=O)[C@H](C)NC(=O)[C@H](C)NC(=O)CNC(=O)[C@H](CCC(=O)O)NC(=O)[C@H](CC(C)C)NC(=O)[C@H](CC(C)C)NC(=O)[C@H](Cc1ccccc1)NC(=O)[C@H](CO)NC(=O)C(C)(C)NC(=O)[C@H](CC(=O)O)NC(=O)[C@H](CO)NC(=O)[C@@H](NC(=O)[C@H](Cc1ccccc1)NC(=O)[C@@H](NC(=O)CNC(=O)[C@H](CCC(=O)O)NC(=O)C(C)(C)NC(=O)[C@@H](N)Cc1c[nH]cn1)[C@@H](C)O)[C@@H](C)O)C(=O)N[C@@H](CCC(N)=O)C(=O)N[C@@H](Cc1c[nH]c2ccccc12)C(=O)N[C@@H](CC(C)C)C(=O)N[C@H](C(N)=O)C(C)C` [compound 111] (H-H[Aib]EGTFTSD[Aib]SFLLEGAALQRFIQWLV-NH2), in that order: 26712, 2000 nM, 0.0316 nM, 0.24 and 70974.
For `CC[C@H](C)[C@H](NC(=O)[C@H](Cc1ccccc1)NC(=O)[C@H](CCCNC(=N)N)NC(=O)[C@H](CCC(N)=O)NC(=O)[C@H](CC(C)C)NC(=O)[C@H](C)NC(=O)[C@H](C)NC(=O)CNC(=O)[C@H](CCC(=O)O)NC(=O)[C@H](CC(C)C)NC(=O)[C@H](CC(C)C)NC(=O)[C@H](Cc1ccc(O)cc1)NC(=O)[C@H](CO)NC(=O)[C@@H](NC(=O)[C@H](CC(=O)O)NC(=O)[C@H](CO)NC(=O)[C@@H](NC(=O)[C@H](Cc1ccccc1)NC(=O)[C@@H](NC(=O)CNC(=O)[C@H](CCC(=O)O)NC(=O)C(C)(C)NC(=O)[C@@H](N)Cc1c[nH]cn1)[C@@H](C)O)[C@@H](C)O)[C@@H](C)CC)C(=O)N[C@@H](CCC(N)=O)C(=O)N[C@@H](Cc1c[nH]c2ccccc12)C(=O)N[C@@H](CC(C)C)C(=O)N[C@H](C(N)=O)C(C)C` [compound 112] (H-H[Aib]EGTFTSDISYLLEGAALQRFIQWLV-NH2), in that order: 93630, 2510 nM, 0.0158 nM, 0.29 and 164097.
For `CC[C@H](C)[C@H](NC(=O)[C@H](Cc1ccccc1)NC(=O)[C@H](CCCNC(=N)N)NC(=O)[C@H](CCC(N)=O)NC(=O)[C@H](CC(C)C)NC(=O)[C@H](C)NC(=O)[C@H](C)NC(=O)CNC(=O)[C@H](CCC(=O)O)NC(=O)[C@H](CC(C)C)NC(=O)[C@H](CC(C)C)NC(=O)C(C)(C)NC(=O)[C@H](CO)NC(=O)[C@@H](NC(=O)[C@H](CC(=O)O)NC(=O)[C@H](CO)NC(=O)[C@@H](NC(=O)[C@H](Cc1ccccc1)NC(=O)[C@@H](NC(=O)CNC(=O)[C@H](CCC(=O)O)NC(=O)C(C)(C)NC(=O)[C@@H](N)Cc1c[nH]cn1)[C@@H](C)O)[C@@H](C)O)[C@@H](C)CC)C(=O)N[C@@H](CCC(N)=O)C(=O)N[C@@H](Cc1c[nH]c2ccccc12)C(=O)N[C@@H](CC(C)C)C(=O)N[C@H](C(N)=O)C(C)C` [compound 113] (H-H[Aib]EGTFTSDIS[Aib]LLEGAALQRFIQWLV-NH2), in that order: 11510, 79.4 nM, 0.0501 nM, 0.78 and 1590.
